Test results reported in paper PMC4113456, “Atypical Signaling and Functional Desensitization Response of MAS Receptor to Peptide Ligands” (PLoS ONE, 2014).
Read-outs that look alike come from different tables or passages of the source. Blank lines part the entries; values can stand above or below the compound they belong to. Non-standard residues stand in square brackets, D forms with d. No end group written: not given here.

Key:
MAS I191A mutant = target: T1, MAS I191A mutant (Homo sapiens, UniProt P04201, I191A); assay: Calcium assay, I191A MAS mutant stable cell line; type: cell-based
T1 construct: expressed in transfected cells
T1 sequence (P04201 1-325 I191A): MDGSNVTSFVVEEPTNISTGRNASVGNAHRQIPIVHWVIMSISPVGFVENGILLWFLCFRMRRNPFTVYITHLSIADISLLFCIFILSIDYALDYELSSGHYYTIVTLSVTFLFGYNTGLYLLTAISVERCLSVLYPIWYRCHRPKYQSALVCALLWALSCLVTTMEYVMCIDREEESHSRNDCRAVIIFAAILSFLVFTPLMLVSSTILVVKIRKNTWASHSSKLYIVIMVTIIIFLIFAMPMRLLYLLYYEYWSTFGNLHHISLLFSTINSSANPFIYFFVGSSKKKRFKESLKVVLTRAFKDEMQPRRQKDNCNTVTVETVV
Method: (§1) The assay was performed using FLIPR Calcium 5 assay kit (Molecular Devices, Sunnyvale, CA). For calcium measurements, cells at a density of 125,000 cells/well in 100 µl medium were seeded onto a 96-well clear bottom black cell culture plate that was pre-coated with poly-L-lysine. In the calcium assays the cell density of 125,000 cells/well was consistently maintained to minimize variability between independent experiments. The cells were seeded in induction media to induce MAS expression or in complete media for negative controls. The plate was maintained in a cell culture incubator for 26–28 h. The cells were then serum starved for 2 h by replacing the medium with 100 µl of serum free DMEM. In the case of pre-treatment with pan-inhibitor of G protein signaling, BIM-46187, the cells were initially serum starved for 1 h by replacing the medium with 50 µl of serum free DMEM. After 1 h, 50 µl of BIM-46187 was added to the cells to a final concentration of 25 µM and treated for another 1 h. Following serum starvation, 100 µl of calcium sensitive dye along with 2x (2.5 mM final concentration) probenecid (Life Technologies, Grand Island, NY) was added to the cells. During this step, AR-inverse agonist or BIM-46187 was also added at desired concentrations to the calcium dye preparation in case of experiments where cells were pre-treated with these inhibitors. The cells were maintained for one hour in the cell culture incubator. […] The instrument was programmed in FLEX mode to add ligands (50 µl at 5x concentration) to the cells and to monitor the fluorescence before and after adding the ligands. […]
(§2) The kinetic parameter t1/2 (time taken to reach half of the maximum response) was determined using SoftMax Pro software supplied with the FlexStation 3 instrument (Molecular Devices, Sunnyvale, CA).
(§3) For re-stimulation assays, the data is expressed as the percentage of maximum agonist stimulation to allow for ready comparison between individual experiments. […]

MAS T270A mutant = target: T2, MAS T270A mutant (Homo sapiens, UniProt P04201, T270A); assay: Calcium assay, T270A MAS mutant stable cell line; type: cell-based
T2 construct: expressed in transfected cells
T2 sequence (P04201 1-325 T270A): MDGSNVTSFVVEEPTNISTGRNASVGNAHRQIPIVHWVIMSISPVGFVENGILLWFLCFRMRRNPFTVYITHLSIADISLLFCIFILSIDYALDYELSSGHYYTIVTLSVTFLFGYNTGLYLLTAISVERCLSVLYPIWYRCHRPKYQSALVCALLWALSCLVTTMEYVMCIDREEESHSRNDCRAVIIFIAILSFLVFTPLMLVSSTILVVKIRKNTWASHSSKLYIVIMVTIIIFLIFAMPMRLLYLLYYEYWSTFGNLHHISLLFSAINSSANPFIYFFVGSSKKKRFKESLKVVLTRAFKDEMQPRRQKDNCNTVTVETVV
Method: as §1, §2, §3

MAS F112A mutant = target: T3, MAS F112A mutant (Homo sapiens, UniProt P04201, F112A); assay: Calcium assay, F112A MAS mutant stable cell line; type: cell-based
T3 construct: expressed in transfected cells
T3 sequence (P04201 1-325 F112A): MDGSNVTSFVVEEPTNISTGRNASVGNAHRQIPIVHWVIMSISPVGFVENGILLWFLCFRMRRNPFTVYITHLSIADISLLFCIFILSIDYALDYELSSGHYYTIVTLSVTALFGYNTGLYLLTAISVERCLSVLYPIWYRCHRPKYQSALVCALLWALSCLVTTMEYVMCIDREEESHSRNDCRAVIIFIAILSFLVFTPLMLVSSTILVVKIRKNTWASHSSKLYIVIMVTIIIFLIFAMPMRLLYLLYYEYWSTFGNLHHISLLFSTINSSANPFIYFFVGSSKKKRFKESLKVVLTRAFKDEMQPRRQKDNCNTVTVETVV
Method: as §1, §2, §3

MAS [1] = target: T4, MAS (Homo sapiens, UniProt P04201); assay: FLIPR calcium assay, induced myc-tagged WT MAS HEK293 stable cell line; type: cell-based; settings: for EC50 / EC50, Calcium assay: induced cells
T4 construct: expressed in transfected cells
T4 sequence (P04201 1-325): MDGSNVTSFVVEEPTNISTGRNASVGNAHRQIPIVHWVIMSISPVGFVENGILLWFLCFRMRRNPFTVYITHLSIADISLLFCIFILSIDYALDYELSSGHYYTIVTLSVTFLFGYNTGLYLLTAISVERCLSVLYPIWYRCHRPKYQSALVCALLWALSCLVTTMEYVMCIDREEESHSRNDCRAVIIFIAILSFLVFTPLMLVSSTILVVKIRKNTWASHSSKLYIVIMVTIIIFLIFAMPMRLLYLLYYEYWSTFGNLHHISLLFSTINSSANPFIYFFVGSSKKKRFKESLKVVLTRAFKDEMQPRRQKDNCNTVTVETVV
Method: The assay was performed using FLIPR Calcium 5 assay kit (Molecular Devices, Sunnyvale, CA). For calcium measurements, cells at a density of 125,000 cells/well in 100 µl medium were seeded onto a 96-well clear bottom black cell culture plate that was pre-coated with poly-L-lysine. In the calcium assays the cell density of 125,000 cells/well was consistently maintained to minimize variability between independent experiments. The cells were seeded in induction media to induce MAS expression or in complete media for negative controls. The plate was maintained in a cell culture incubator for 26–28 h. The cells were then serum starved for 2 h by replacing the medium with 100 µl of serum free DMEM. In the case of pre-treatment with pan-inhibitor of G protein signaling, BIM-46187, the cells were initially serum starved for 1 h by replacing the medium with 50 µl of serum free DMEM. After 1 h, 50 µl of BIM-46187 was added to the cells to a final concentration of 25 µM and treated for another 1 h. Following serum starvation, 100 µl of calcium sensitive dye along with 2x (2.5 mM final concentration) probenecid (Life Technologies, Grand Island, NY) was added to the cells. During this step, AR-inverse agonist or BIM-46187 was also added at desired concentrations to the calcium dye preparation in case of experiments where cells were pre-treated with these inhibitors. The cells were maintained for one hour in the cell culture incubator. Following this, the 96-well plate containing cells loaded with calcium dye and a U-bottom 96-well plate containing ligands at 5x the desired final concentration in D-PBS (1.47 mM KH2PO4, 138 mM NaCl, 2.67 mM KCl, 8.1 mM Na2HPO4, pH 7.3) were allowed to equilibrate for 15 min on a FlexStation 3 instrument (Molecular Devices, Sunnyvale, CA) at 37°C. The plates were further equilibrated on the instrument for 5 min with the lids removed from the plates. The instrument was programmed in FLEX mode to add ligands (50 µl at 5x concentration) to the cells and to monitor the fluorescence before and after adding the ligands. In re-stimulation and antagonism assays the instrument is programmed to add 35 µl of first ligand followed by addition of the second ligand (35 µl) after 10 min. […] Therefore, when using 5x ligand stock the maximum AR-agonist concentration that could be tested was 10 µM.
In the calcium assays, the maximum response and minimum response values in relative fluorescence units (RFU) were extracted by subtracting the corresponding baseline value wherein baseline is defined as the average fluorescence of all time points before addition of ligand.
as §2
For re-stimulation assays, the data is expressed as the percentage of maximum agonist stimulation to allow for ready comparison between individual experiments. […] For all the assays, the EC50 and IC50 values were estimated by fitting the data to a three parameter dose response using GraphPad Prism software (GraphPad, La Jolla, CA).

MAS M244A mutant = target: T5, MAS M244A mutant (Homo sapiens, UniProt P04201, M244A); assay: Calcium assay, M244A MAS mutant stable cell line; type: cell-based
T5 construct: expressed in transfected cells
T5 sequence (P04201 1-325 M244A): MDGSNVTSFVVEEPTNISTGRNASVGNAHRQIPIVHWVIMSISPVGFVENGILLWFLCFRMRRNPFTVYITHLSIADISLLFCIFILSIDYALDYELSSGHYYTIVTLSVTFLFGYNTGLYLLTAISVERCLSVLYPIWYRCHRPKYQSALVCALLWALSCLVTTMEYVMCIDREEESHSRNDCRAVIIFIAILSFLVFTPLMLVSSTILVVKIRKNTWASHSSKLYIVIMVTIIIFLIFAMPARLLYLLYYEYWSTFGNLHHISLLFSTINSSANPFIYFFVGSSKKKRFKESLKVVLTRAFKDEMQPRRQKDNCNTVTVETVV
Method: as §1, §2, §3

MAS [2] = target: T4, MAS; set-up: method as in ref [10,11] (a number printed in a supplementary file, which may have a reference list of its own: not looked up in the article's list); settings: ref [10,11], read-out: EC50 (Calcium assay); cited from earlier work
MAS [3] = test system: MAS; set-up: method as in ref [2] (a number printed in a supplementary file, which may have a reference list of its own: not looked up in the article's list); settings: Mouse MAS; ref [2]; cited from earlier work
untagged WT MAS = target: T6, untagged WT MAS (Homo sapiens, UniProt P04201); assay: Calcium assay, untagged WT MAS inducible HEK293 stable cell line; type: cell-based; settings: up to 250 µM
T6 construct: expressed in transfected cells
T6 sequence (P04201 1-325): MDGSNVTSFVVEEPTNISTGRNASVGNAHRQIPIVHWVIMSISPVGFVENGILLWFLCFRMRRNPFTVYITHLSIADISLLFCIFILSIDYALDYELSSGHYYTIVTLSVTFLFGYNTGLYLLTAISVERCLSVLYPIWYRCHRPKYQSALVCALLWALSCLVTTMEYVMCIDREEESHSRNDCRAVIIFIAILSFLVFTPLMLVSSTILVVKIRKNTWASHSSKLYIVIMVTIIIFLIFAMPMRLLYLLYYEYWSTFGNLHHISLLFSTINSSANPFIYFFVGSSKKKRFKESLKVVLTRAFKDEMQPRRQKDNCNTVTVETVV
Method: The assay was performed using FLIPR Calcium 5 assay kit (Molecular Devices, Sunnyvale, CA). For calcium measurements, cells at a density of 125,000 cells/well in 100 µl medium were seeded onto a 96-well clear bottom black cell culture plate that was pre-coated with poly-L-lysine. In the calcium assays the cell density of 125,000 cells/well was consistently maintained to minimize variability between independent experiments. The cells were seeded in induction media to induce MAS expression or in complete media for negative controls. The plate was maintained in a cell culture incubator for 26–28 h. The cells were then serum starved for 2 h by replacing the medium with 100 µl of serum free DMEM. In the case of pre-treatment with pan-inhibitor of G protein signaling, BIM-46187, the cells were initially serum starved for 1 h by replacing the medium with 50 µl of serum free DMEM. After 1 h, 50 µl of BIM-46187 was added to the cells to a final concentration of 25 µM and treated for another 1 h. Following serum starvation, 100 µl of calcium sensitive dye along with 2x (2.5 mM final concentration) probenecid (Life Technologies, Grand Island, NY) was added to the cells. During this step, AR-inverse agonist or BIM-46187 was also added at desired concentrations to the calcium dye preparation in case of experiments where cells were pre-treated with these inhibitors. The cells were maintained for one hour in the cell culture incubator. Following this, the 96-well plate containing cells loaded with calcium dye and a U-bottom 96-well plate containing ligands at 5x the desired final concentration in D-PBS (1.47 mM KH2PO4, 138 mM NaCl, 2.67 mM KCl, 8.1 mM Na2HPO4, pH 7.3) were allowed to equilibrate for 15 min on a FlexStation 3 instrument (Molecular Devices, Sunnyvale, CA) at 37°C. The plates were further equilibrated on the instrument for 5 min with the lids removed from the plates. The instrument was programmed in FLEX mode to add ligands (50 µl at 5x concentration) to the cells and to monitor the fluorescence before and after adding the ligands. […]

MAS [4] = target: T4, MAS; assay: HTRF IP1 assay, induced myc-tagged WT MAS HEK293 stable cell line; type: cell-based; settings: WT MAS, induced cells
MAS [5] = test system: MAS; set-up: method as in ref [2] (a number printed in a supplementary file, which may have a reference list of its own: not looked up in the article's list); settings: Mouse MAS; ref [2]; cited from earlier work; remark: listed apart in the source
MAS [6] = target: T4, MAS; assay: SRF-RE luciferase reporter assay (Gα12-dependent), induced WT MAS stable cell line; type: cell-based; settings: induced cells
Method: The luciferase assay was performed using pGL4 luciferase reporter vectors and Dual-Glo Luciferase Assay System (Promega, Madison, WI). For this assay, the inducible MAS stable cells were initially plated in a 10 cm plate and left overnight in a cell culture incubator. The following day the cells were transfected with 5 µg of pGL4.34 plasmid containing serum response factor response element (SRF-RE)-firefly luciferase reporter gene and 1 µg of pGL4.73 plasmid containing renilla luciferase (as a transfection efficiency control). […] After 8 h of transfection and induction, the cells were seeded onto a 96-well clear bottom black cell culture plate (pre-coated with poly-L-lysine) at a density of 125,000 cells/well in 100 µl of minimal medium (with reduced serum of 0.5%). The plate was maintained in a cell culture incubator for 18–20 h. At this point 50 µl of media in the cells was replaced with 50 µl of serum free media containing ligands at 2x the desired concentration and incubated for an additional 6 h. Finally, the luciferase activity in the cells was measured according the protocol provided by the manufacturer. The luminescence measurements (RLU) in the cells were obtained on FlexStation 3 instrument.
For re-stimulation assays, the data is expressed as the percentage of maximum agonist stimulation to allow for ready comparison between individual experiments. […] In the luciferase assay, the luminescence measurements (RLU) are presented as a ratio of firefly to renilla luciferase activity. For all the assays, the EC50 and IC50 values were estimated by fitting the data to a three parameter dose response using GraphPad Prism software (GraphPad, La Jolla, CA).

MAS [7] = settings: Mouse MAS, cited from earlier work
MAS [8] = test system: MAS; set-up: method as in ref [12] (a number printed in a supplementary file, which may have a reference list of its own: not looked up in the article's list); settings: Rat MAS; ref [12]; read-out: EC50 (Calcium assay); cited from earlier work
[9] = WT MAS, t1/2 at 100 µM ligand concentration
[10] = WT MAS, t1/2 at 1000 µM (1 mM) ligand concentration

Compound: CC(C)C[C@H](NC(=O)[C@@H](N)Cc1ccccc1)C(=O)N[C@@H](Cc1ccccc1)C(=O)N[C@@H](CCC(N)=O)C(=O)N1CCC[C@H]1C(=O)N[C@@H](CCC(N)=O)C(=O)N[C@@H](CCCN=C(N)N)C(=O)N[C@@H](Cc1ccccc1)C(N)=O [NPFF, Neuropeptide FF]
t1/2, Calcium assay (MAS I191A mutant): 9.0 ± 0.4 s
t1/2, Calcium assay (MAS T270A mutant): 9.3±2.0^#∧ s
t1/2, Calcium assay (MAS F112A mutant): 7.7±2.9^#∧ s
t1/2 (time taken to reach half of the maximal calcium response), Calcium assay (MAS [1]; WT MAS): 8.5 ± 0.3 s
t1/2, Calcium assay (MAS M244A mutant): cbd

Compound: P61 / CGEN-856: peptide agonist, sequence FLGYCIYLNRKRRGDPAFKRRLRD
EC50 (MAS [2]): 0.57 µM

Compound: CC[C@H](C)[C@H](NC(=O)[C@H](Cc1ccc(O)cc1)NC(=O)[C@@H](NC(=O)[C@H](CCCNC(=N)N)NC(=O)[C@@H](N)CC(=O)O)C(C)C)C(=O)N[C@@H](Cc1c[nH]cn1)C(=O)N1CCC[C@H]1C(=O)O [Ang(1–7), angiotensin (1–7)]
Effect in aortic rings (MAS [3]): Vasodilator effect in aortic rings
EC50, Calcium assay (MAS [1]; WT MAS): cbd
t1/2, Calcium assay (MAS [1]; [10]): 11.8 ± 0.6 s
Calcium response (untagged WT MAS): no response
EC50, IP1 assay (MAS [4]): cbd
Type (Arachidonic acid release assay) (MAS [5]): Endogenous agonist
EC50, Luciferase assay (MAS [6]): cbd

Compound: A779: Ang(1–7) analog, sequence DRVYIH^DA (DRVYIH[dA])
Remarks: effect on Ang(1-7) response (MAS [7]; ref [2,5]): Inhibits Ang(1-7) response
EC50, Calcium assay (MAS [1]; WT MAS): cbd
t1/2, Calcium assay (MAS [1]; [9]): cbd ^#

Compound: MBP7: peptide agonist, sequence KAQLRRLS
EC50 (MAS [8]): 36.4 µM

Compound: N[C@@H](CSSC[C@H](N)C(=O)N1CCn2cc(-c3ccccc3)nc2[C@@H]1CC1CCCCC1)C(=O)N1CCn2cc(-c3ccccc3)nc2[C@@H]1CC1CCCCC1 [BIM-46187]
Effect of pre-treatment on AR-agonist calcium signal (MAS [1]; 25 µM pre-treatment): complete loss of signal

Compound: [^DPro^7]-Ang(1-7)
Remarks: effect on Ang(1-7) response (MAS [7]; ref [6]): Inhibits Ang(1-7) response

Results, then the compound that gave them:

EC50 (MAS [1]; WT MAS): 24.4 ± 1.5 µM
t1/2, Calcium assay (MAS [1]; [9]): 13.7 ± 0.9 s
Compound: CC[C@H](C)[C@H](NC(=O)[C@H](Cc1ccc(O)cc1)NC(=O)[C@@H](N)C(C)C)C(=O)N[C@@H](Cc1c[nH]cn1)C(=O)N1CCC[C@H]1C(=O)N[C@@H](Cc1ccccc1)C(N)=O [AngIV-amide]

EC50, Calcium assay (MAS [1]; WT MAS): cbd
t1/2, Calcium assay (MAS [1]; [10]): 11.4 ± 1.0 s
Compound: CC[C@H](C)[C@H](NC(=O)[C@H](Cc1ccc(O)cc1)NC(=O)[C@@H](NC(=O)[C@H](CCCNC(=N)N)NC(=O)[C@@H](N)CC(=O)O)C(C)C)C(=O)N[C@@H](Cc1c[nH]cn1)C(=O)N1CCC[C@H]1C(N)=O [Ang(1–7)-amide]

EC50 (MAS [1]; WT MAS): 12.2 ± 2 µM
Compound: YLFQPQRF-NH2 [[Y^1]-NPFF]

t1/2, Calcium assay (MAS [1]; [10]): 15.0 ± 0.5 s
Compound: VYIHP [Ang(3–7)]
